The values that follow are results of earlier work, collected in patent US20240165069A1, “METHODS FOR TREATING DYSGEUSIA AND OTHER LINGERING SYMPTOMS ASSOCIATED WITH SEVERE ACUTE RESPIRATORY SYNDROME CORONAVIRUS 2 INFECTIONADN CORONAVIRUS DISEASE 2019” (Nocendra, Inc., priority 2021, published 2024).

This data set concerns oral inflammation. As to conditions: Phase 1 trial.

On to `CCCCC[C@@H](O)/C=C/c1ccccc1/C=C/[C@@H](O)[C@@H](O)CCCC(=O)O` [BLXA4, 9,12-benzo-lipoxin A4], for which the safety profile result (50 subjects receiving drug, oral topical mouth rinse, versus placebo mouth rinse) is given as “indistinguishable from placebo mouth rinse in safety profile”. The “efficacy (reversal of inflammation)” value (oral topical mouth rinse, not powered for efficacy, trends only) is listed as “trends in the efficacy data suggested reversal of inflammation”. Further, the “pro-resolving lipid mediator shift in serum” value (topical BLXA4, serum of the subjects) is listed as “elicited a pro-resolving lipid mediator shift in the serum”.
